These results are taken from ChEMBL document CHEMBL1201862, “PubChem BioAssay data set” (2004).

The structures appear in SMILES notation.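 Values below derive from 48-hour exposures of cells grown in 96-well plates, with endpoints linearly interpolated between the two concentrations bracketing the appropriate inhibition level. GI50 = concentration required for 50% inhibition of growth.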 Active and inactive are the calls of the source. Rule as the data show it: active = GI50 up to about 1.1 µM and inactive = higher.

Among the test systems are A498; A549; BT-549; EKVX; HCC 2998; HCT-116; IGROV-1; KM12; MDA-MB-231; MDA-MB-435; MDA-N; NCI-H460; OVCAR-8; SF-268; SK-MEL-2; SK-MEL-5; SW-620; U-251; UACC-257.
What all share (test): NCI-60 cell line screen, 48 h

Take `CC(C)c1ccc2c(c1)/C(=C1/Nc3ccccc3/C1=N/O)C(=O)N2`: the GI50 with A498 was 2.78 µM (inactive); in the assay on A549 it was 6.28 µM (inactive); in the assay with BT-549 it was 7.13 µM (inactive); in the assay on EKVX it was 4.51 µM (inactive); in the assay with HCC 2998, 4.75 µM (inactive); in the assay with HCT-116, 3.76 µM (inactive). Further, the GI50 with IGROV-1 is 8.73 µM (inactive); in the assay with KM12 it was 0.0431 µM (active); in the assay with MDA-MB-231, 15.3 µM (inactive); with MDA-MB-435, 7.38 µM (inactive); in the assay with MDA-N, 6.73 µM (inactive); with NCI-H460, 4 µM (inactive). The GI50 with OVCAR-8 is 2.79 µM (inactive); in the assay on SF-268 it was 7 µM (inactive); with SK-MEL-2, 3.9 µM (inactive); in the assay with SK-MEL-5, 3.82 µM (inactive); in the assay on SW-620, 5.11 µM (inactive); in the assay on U-251, 7.23 µM (inactive). In the assay on UACC-257, the GI50 was 12.1 µM (inactive).
`CC(C)Cc1cnc(CC(C)C)c(=O)[nH]1`: the GI50 in the assay on A498, in the assay with A549, with BT-549, with EKVX, in the assay on HCC 2998 and with HCT-116 was > 100 µM (inactive) in each case. Also, the GI50 in the assay on IGROV-1, in the assay with KM12, with MDA-MB-231, with MDA-MB-435, in the assay on MDA-N and with NCI-H460 was > 100 µM (inactive) in each case. In addition, the GI50 in the assay with OVCAR-8, in the assay on SF-268, with SK-MEL-2, in the assay with SK-MEL-5, in the assay on SW-620 and in the assay on U-251 was > 100 µM (inactive) throughout. Also, the GI50 in the assay with UACC-257 was > 100 µM (inactive).
Take `CCN(CC)CCOC(c1cc(OC)ccc1OC)c1ccc2n1-c1ccccc1OC2` (configuration not stated): the GI50 is 11.8 µM (inactive) in the assay on A498; 14 µM (inactive) with A549; 12.7 µM (inactive) in the assay with BT-549; 16.1 µM (inactive) in the assay with EKVX; 5.31 µM (inactive) in the assay on HCC 2998; 12.6 µM (inactive) in the assay with HCT-116. In addition, the GI50 with IGROV-1 is 7 µM (inactive); in the assay on KM12, 16.5 µM (inactive); in the assay with MDA-MB-231 it was 2.09 µM (inactive); in the assay on MDA-MB-435, 10.5 µM (inactive); in the assay on MDA-N, 13.6 µM (inactive); in the assay on NCI-H460, 12.4 µM (inactive). The GI50 with OVCAR-8 is 13.2 µM (inactive); with SF-268 it was 14.5 µM (inactive); with SK-MEL-2, 13.1 µM (inactive); in the assay with SK-MEL-5, 10.4 µM (inactive); in the assay with SW-620 it was 8.85 µM (inactive); in the assay on U-251, 14.9 µM (inactive). In the assay with UACC-257, the GI50 is 16 µM (inactive).
For the compound `CN(CCCNC(=O)c1cn(C)c2c1ccc1cc(Cl)c(Cl)cc12)CCCNC(=O)c1cn(C)c2c1ccc1cc(Cl)c(Cl)cc12`, the GI50 in the assay on A498 is 12.9 µM (inactive); in the assay on A549 it was 11 µM (inactive); in the assay with BT-549 it was 15.6 µM (inactive); in the assay on EKVX it was 15.4 µM (inactive); with HCC 2998, 4 µM (inactive); with HCT-116, 12.2 µM (inactive). Also, the GI50 with IGROV-1 is 7.62 µM (inactive); with KM12, 5.31 µM (inactive); in the assay on MDA-MB-231, 15.4 µM (inactive); with MDA-MB-435, 6.17 µM (inactive); in the assay with MDA-N, 15.9 µM (inactive); in the assay with NCI-H460 it was 3.97 µM (inactive). In addition, the GI50 was 14.8 µM (inactive) in the assay on OVCAR-8; 13.7 µM (inactive) in the assay on SF-268; 16.7 µM (inactive) in the assay on SK-MEL-2; 14.7 µM (inactive) in the assay with SK-MEL-5; 4.19 µM (inactive) with SW-620; 3.03 µM (inactive) with U-251. Also, the GI50 in the assay with UACC-257 was 19.3 µM (inactive).
For the compound `CCn1cc(C(=O)O)c(=O)c2cc3c(cc21)S(=O)(=O)CC3`, the GI50 in the assay with A498, with A549, in the assay on BT-549, in the assay on EKVX, in the assay with HCC 2998 and in the assay with HCT-116 was > 100 µM (inactive) in each case. Also, the GI50 in the assay with IGROV-1, in the assay on KM12, in the assay with MDA-MB-231, with MDA-MB-435, with MDA-N and in the assay with NCI-H460 was > 100 µM (inactive) in each case. The GI50 was > 100 µM (inactive) with OVCAR-8; > 100 µM (inactive) in the assay with SF-268; > 100 µM (inactive) with SK-MEL-2; > 100 µM (inactive) in the assay with SK-MEL-5; > 100 µM (inactive) in the assay with SW-620; 24.2 µM (inactive) in the assay on U-251. In addition, the GI50 in the assay on UACC-257 is > 100 µM (inactive).
`ON[C@@H]1C=C[C@H](n2cnc3c(NC4CC4)ncnc32)C1`: the GI50 in the assay with A498 was > 100 µM (inactive); with A549, > 100 µM (inactive); in the assay with BT-549 it was > 100 µM (inactive); in the assay on EKVX it was > 100 µM (inactive); in the assay on HCC 2998, > 100 µM (inactive); in the assay with HCT-116, 86.5 µM (inactive). Besides, the GI50 in the assay with IGROV-1 is 94.4 µM (inactive); in the assay with KM12, > 100 µM (inactive); in the assay with MDA-MB-231, > 100 µM (inactive); with MDA-MB-435 it was > 100 µM (inactive); in the assay with MDA-N, > 100 µM (inactive); in the assay with NCI-H460, > 100 µM (inactive). In addition, the GI50 in the assay on OVCAR-8, in the assay with SF-268, in the assay on SK-MEL-2, in the assay on SK-MEL-5, with SW-620 and in the assay with U-251 was > 100 µM (inactive) throughout. In addition, in the assay with UACC-257, the GI50 is > 100 µM (inactive).
On to `Cc1ccc(NC(=S)C#N)c(C)c1`, for which the GI50 in the assay with A498 was > 100 µM (inactive); with A549, > 100 µM (inactive); in the assay on BT-549, 54.1 µM (inactive); with EKVX, > 93.5 µM (inactive); in the assay on HCC 2998 it was > 100 µM (inactive); in the assay on HCT-116, > 78.7 µM (inactive). For the same compound, the GI50 is > 63 µM (inactive) in the assay on IGROV-1; > 82.8 µM (inactive) in the assay on KM12; > 100 µM (inactive) with MDA-MB-231; 56 µM (inactive) in the assay on MDA-MB-435; > 82.2 µM (inactive) in the assay with MDA-N; > 89.7 µM (inactive) in the assay with NCI-H460. In addition, the GI50 in the assay on OVCAR-8 was > 100 µM (inactive); in the assay with SF-268, > 87.3 µM (inactive); in the assay with SK-MEL-2, > 100 µM (inactive); with SK-MEL-5, 51.9 µM (inactive); in the assay with SW-620, > 73.5 µM (inactive); with U-251 it was > 86.3 µM (inactive). In addition, the GI50 in the assay with UACC-257 is 63.2 µM (inactive).
As to `O=c1/c(=C/c2ccc([N+](=O)[O-])o2)sc2n1[C@@H](c1ccc3c(c1)OCO3)C=C(c1cc(F)c(Cl)cc1Cl)N=2`, the GI50 in the assay on A498 is 56 µM (inactive); in the assay with A549, 16.4 µM (inactive); in the assay with BT-549 it was 16.8 µM (inactive); in the assay with EKVX it was 16.6 µM (inactive); in the assay on HCC 2998, 12.9 µM (inactive); in the assay with HCT-116, 5.11 µM (inactive). The GI50 was 16.3 µM (inactive) in the assay with IGROV-1; 16.6 µM (inactive) in the assay on KM12; 23 µM (inactive) in the assay with MDA-MB-231; 13.4 µM (inactive) with MDA-MB-435; 5.5 µM (inactive) with MDA-N; 17.8 µM (inactive) in the assay on NCI-H460. In addition, the GI50 in the assay with OVCAR-8 was 11.9 µM (inactive); with SF-268, 28.7 µM (inactive); in the assay on SK-MEL-2, 25.1 µM (inactive); in the assay with SK-MEL-5, 10.3 µM (inactive); with SW-620 it was 5.42 µM (inactive); in the assay with U-251, 19.9 µM (inactive). The GI50 in the assay with UACC-257 is 17.2 µM (inactive).
